Data published in PMC4478171, “Synthesis, characterization, and preclinical validation of a PET radiopharmaceutical for interrogating Aβ (β-amyloid) plaques in Alzheimer’s disease” (EJNMMI Research, 2015).
Entries after “also recorded” stand apart in the source; their conditions may differ.

Columns and labels:
Aβ1-42 fibrils = target: T1, Aβ1-42 fibrils (Homo sapiens, UniProt P05067); assay: Saturation radioligand binding to preformed Aβ1-42 fibrils
T1 construct: synthetic Aβ1-42 peptide (1 mg) (Bachem, Torrance, CA); purchased Bachem, Torrance, CA; host or cells: chemical synthesis
T1 sequence (P05067 672-713 limits assumed): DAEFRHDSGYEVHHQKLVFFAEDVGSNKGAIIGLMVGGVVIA
Description: Aβ1-42 fibrils were obtained using literature procedures described earlier. Briefly, synthetic Aβ1-42 peptide (1 mg) (Bachem, Torrance, CA) was initially dissolved in DMSO (50 μL) and diluted with the addition of mQ-H2O (925 μL). Finally, 1 M Tris-HCl (25 μL; pH 7.6) was added to the peptide solution to obtain a final peptide concentration (222 μM; 1 mg/mL). Thereafter, the peptide solution was incubated for 30 h at 37°C with shaking at 1,000 rpm in an Eppendorf Thermomixer. The fibril formation was confirmed by ThioT fluorescence. For determining the concentration of fibrils, the fibril reaction mix was centrifuged at 15,000×g for 15 min to separate the fibrils from the monomer. The concentration of Aβ monomer in the supernatant was determined in a BCA protein assay. […] The exact hot:cold (^18F-7B:7A) ratio was measured in each experiment by counting an aliquot of a sample (2 μL) of the radioligand preparation in a scintillation counter. Binding of ^18F-7B to human brain homogenates was assessed by incubating samples of insoluble fraction (5-μg insoluble protein/well) from AD subjects, with increasing concentrations of ^18F-7B (1.5 to 100 nM). Nonspecific binding was determined in parallel experiments utilizing 7A (2.5 μM) for Aβ1-42 fibrils and 7A (5 μM) for AD tissue as a competitor. […] Bmax values were calculated in pmol/gram wet weight of brain tissue.

[1] = target: cortical Aβ plaques in AD frontal cortex sections (Homo sapiens, UniProt P05067); assay: Autoradiography on AD frontal cortex sections with IHC correlation; format: binding; settings: 10 nM tracer, 60 min, 12 μm AD frontal cortex sections
Chain of cortical Aβ plaques in AD frontal cortex sections (P05067 672-711 limits assumed): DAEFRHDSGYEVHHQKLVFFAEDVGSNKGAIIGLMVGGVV
Description: Frozen AD frontal cortex sections (12 μm) were obtained using a TBS Minotome PLUS Cryostat. The tissue sections were thaw-mounted onto Superfrost Plus (Fisherbrand 12-550-15 (Fisherbrand, Leicestershire, UK)) microscope slides, allowed to air dry for 10 to 15 min, and stored at −80°C. For autoradiography, brain sections were brought to room temperature for 5 min and then pre-incubated in assay buffer (30 mM Tris-HCl, pH 7.4 + 0.1% BSA) for 10 min at RT. Sections were incubated with ^18F-7B (300 μL/slide; 10 nM) in the assay buffer for 60 min at room temperature. For determining nonspecific binding, adjacent sections were incubated in the additional presence of 2.5 μM cold ligand 7A. Sections were then washed at RT for 1 min in 30 mM Tris-HCl pH 7.4, 2 min in 70% ethanol/30 mM Tris-HCl, 1 min in 30% ethanol/30 mM Tris-HCl, and 1 min in 30 mM Tris-HCl (washing protocol using literature precedents. Sections were then dried and exposed to phosphor-imaging screen (BAS-MS 2025) for 30 min. Autoradiography images were obtained on a Fuji Bio-Imaging System FLA-7000 (Tokyo, Japan) and analyzed using MultiGauge software (Fuji, Tokyo, Japan). Following exposure to a phosphor-imaging screen, the sections were then blocked for 60 min at room temperature with 3% milk-0.25% Tween 20-PBS buffer. […]

[2] = Metabolite analysis in human serum (radio-HPLC, radio-TLC); format: in vitro ADME; settings: 37°C up to 60 min, radio-HPLC and radio-TLC
Description: Human serum (Sigma-Aldrich, St. Louis, MO, USA) was thawed. Serum (100 μL) was taken, diluted with saline to 10%, and incubated with HPLC-purified fraction of ^18F-7B (100 μCi each) at 37°C for 30 and 60 min. Samples were periodically withdrawn and analyzed on radio-HPLC using eluent mixture described above and radio-TLC using an eluent mixture of ethanol/saline in a ratio of 90:10 (to allow mobility of parental compound and other hydrophobic metabolites off the surface to analyze protein binding) and 10:90 (to analyze hydrophilic metabolites).

For `CN(C)c1ccc(/C=C/c2nc3ccc(OCC[18F])cc3s2)cn1` [^18F-7B, (E)-5-(2-(6-(2-[^18F]-fluoroethoxy)-benzo[d]thiazol-2-yl)vinyl)-N,N-dimethylpyridin-2-amine], the Bmax (Aβ1-42 fibrils) was 6 pmol/nmol Aβ, the Kd (Aβ1-42 fibrils; one-site model) was 61 nM and the “labeling of Aβ plaques in autoradiography” value [1] was “showed labeling of cortical Aβ plaques”. For the same compound, the “stability in human serum” value [2] was “presence of parental species in human serum; also recorded: presence of primarily the parental compound”.
